Experimental data reported in PMC10382935 (The Cell Surface, 2023).

Molecular target: T1, CRD DC-SIGN (carbohydrate recognition domain of DC-SIGN, 15N labelled) (Homo sapiens, UniProt Q9NNX6)
T1 sequence (Q9NNX6 250-404 limits assumed): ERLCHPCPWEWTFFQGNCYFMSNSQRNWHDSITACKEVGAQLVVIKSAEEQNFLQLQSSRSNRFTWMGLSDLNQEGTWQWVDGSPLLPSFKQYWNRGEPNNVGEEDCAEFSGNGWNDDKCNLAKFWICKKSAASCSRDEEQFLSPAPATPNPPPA
Test: 1H, […]-HSQC NMR titration
Type: binding

Kd [µM] | SMILES
~600 | NCCCO[C@H]1O[C@H](CO)[C@@H](O)[C@H](O)[C@@H]1O[C@H]1O[C@H](CO)[C@@H](O)[C@H](O)[C@@H]1O[C@H]1O[C@H](CO)[C@@H](O)[C@H](O[C@H]2O[C@H](CO)[C@@H](O)[C@H](O)[C@@H]2O[C@H]2O[C@H](CO)[C@@H](O)[C@H](O)[C@@H]2O)[C@@H]1O [compound 29, pentasaccharide 29]
~1100 | NCCCO[C@H]1O[C@H](CO)[C@@H](O)[C@H](O)[C@@H]1O[C@H]1O[C@H](CO)[C@@H](O)[C@H](O)[C@@H]1O[C@H]1O[C@H](CO)[C@@H](O)[C@H](O)[C@@H]1O[C@H]1O[C@H](CO)[C@@H](O)[C@H](O[C@H]2O[C@H](CO)[C@@H](O)[C@H](O)[C@@H]2O[C@H]2O[C@H](CO)[C@@H](O)[C@H](O)[C@@H]2O)[C@@H]1O [compound 30, hexasaccharide 30]
